Experimental data published in patent US9682976B2, “Protein kinase C inhibitors and uses thereof” (Rigel Pharmaceuticals, Inc., priority 2012, dated 2017).

Tested on: PKC mediated IL-2 production
Experiment: IL-2 ELISA, human primary T cell, anti CD3+CD28+
Format: cell-based
Conditions: Homo sapiens, T-cell, 24 h, human primary T cells stimulated with αCD3 and αCD28, 24 hours
In short: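 IL-2 was quantified by ELISA in 24 h supernatants from primary human T cells given a 1 h compound pre-treatment at 37° C. These cells had been expanded from blood mononuclear cells on αCD3/αCD28 with IL-2, and the IL-2 was removed by washing. Stimulation used plate-bound αCD3 ([…]) plus αCD28 (5 μg/ml); the counter assay used PMA (0.5 ng/ml) with ionomycin (0.1 uM) instead.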

| SMILES | EC50 |
| --- | --- |
| CC1(C)C[C@H](Nc2nc(Nc3ccc(O[C@@H]4CCN(C5COC5)C[C@H]4F)c(C(F)(F)F)c3)ncc2F)C[C@@H]2CCCN21 [Compound 122] | 100 to 500 nM |
| CC1(C)C[C@H](Nc2nc(Nc3ccc(N4CC(O)C4)c(C(F)(F)F)c3)ncc2F)C[C@@H]2CCCN21 [Compound 326, 1-(4-(4-((7R,8aS)-octahydro-5,5-dimethylindolizin-7-ylamino)-5-fluoropyrimidin-2-ylamino)-2-(trifluoromethyl)phenyl)azetidin-3-ol] | 100 to 500 nM |
| Cn1nnn(-c2cc(Nc3ncc(F)c(N[C@@H]4C[C@@H]5CCCN5C(C)(C)C4)n3)c(F)cc2OCC(=O)C(=O)O)c1=O [Compound 171, 3-(4-((4-(((7R,8aS)-5,5-dimethyloctahydroindolizin-7-yl)amino)-5-fluoropyrimidin-2-yl)amino)-5-fluoro-2-(4-methyl-5-oxo-4,5-dihydro-1H-tetrazol-1-yl)phenoxy)-2-oxopropanoic acid] | > 10000 nM |
| CC1(C)C[C@H](Nc2nc(Nc3cccc(C#N)c3)ncc2Cl)C[C@@H]2CCCN21 [Compound 153, 3-((5-chloro-4-(((7R,8aS)-5,5-dimethyloctahydroindolizin-7-yl)amino)pyrimidin-2-yl)amino)benzonitrile] | 100 to 500 nM |
| C[C@@H](O)COc1cc(F)c(Nc2ncc(C#N)c(N[C@@H]3C[C@@H]4CCCN4C(C)(C)C3)n2)cc1-n1nnn(C)c1=O [Compound 314, 4-((7R,8aS)-octahydro-5,5-dimethylindolizin-7-ylamino)-2-(4-((R)-2-hydroxypropoxy)-2-fluoro-5-(4,5-dihydro-4-methyl-5-oxotetrazol-1-yl)phenylamino)pyrimidine-5-carbonitrile] | 100 to 500 nM |
| Cn1nnn(-c2cc(Nc3ncc(F)c(N[C@@H]4C[C@@H]5CCCN5C(C)(C)C4)n3)c(F)cc2O)c1=O [Compound 89, 1-(5-(4-((7R,8aS)-octahydro-5,5-dimethylindolizin-7-ylamino)-5-fluoropyrimidin-2-ylamino)-4-fluoro-2-hydroxyphenyl)-4-methyl-1H-tetrazol-5(4H)-one] | 1000 to 10000 nM |
| CO[C@@H](C)COc1cc(F)c(Nc2ncc(Cl)c(N(C[C@H](C)OC)[C@@H]3C[C@@H]4CCCN4C(C)(C)C3)n2)cc1-n1nnn(C)c1=O [Compound 239, 1-(5-((5-chloro-4-(((7R,8aS)-5,5-dimethyloctahydroindolizin-7-yl)((S)-2-methoxypropyl)amino)pyrimidin-2-yl)amino)-4-fluoro-2-((S)-2-methoxypropoxy)phenyl)-4-methyl-1,4-dihydro-5H-tetrazol-5-one] | > 10000 nM |
| CN1C(=O)COc2ccc(Nc3ncc(F)c(N[C@@H]4C[C@@H]5CCCN5C(C)(C)C4)n3)cc21 [Compound 315] | 1000 to 10000 nM |
| Cn1nnn(-c2cc(Nc3ncc(F)c(N[C@@H]4C[C@@H]5CCCN5C(C)(C)C4)n3)ccc2N2CC(O)C2)c1=O [Compound 328, 1-(5-(4-((7R,8aS)-octahydro-5,5-dimethylindolizin-7-ylamino)-5-fluoropyrimidin-2-ylamino)-2-(3-hydroxyazetidin-1-yl)phenyl)-4-methyl-1H-tetrazol-5(4H)-one] | 1000 to 10000 nM |
| CC1(C)Oc2ccc(Nc3ncc(F)c(N[C@@H]4C[C@@H]5CCCN5C(C)(C)C4)n3)cc2-n2c1nn(C1COC1)c2=O [Compound 251, 5-fluoro-N2-(1H-2,4-dihydron-4,4-dimethyl-2-(oxetan-3-yl)[1,2,4]triazolo[3,4-c][1,4]benzoxazin-1-one-8-yl)-N4-((7R,8aS)-octahydro-5,5-dimethylindolizin-7-yl)pyrimidine-2,4-diamine] | 1000 to 10000 nM |
| CC1(C)C[C@H](Nc2nc(Nc3cccc(-n4nnn(CCO)c4=O)c3)ncc2F)C[C@@H]2CCCN21 [Compound 267, 1-(3-(4-((7R,8aS)-octahydro-5,5-dimethylindolizin-7-ylamino)-5-fluoropyrimidin-2-ylamino)phenyl)-4-(2-hydroxyethyl)-1H-tetrazol-5(4H)-one] | 100 to 500 nM |
| CC1(C)C[C@H](Nc2nc(Nc3ccc(N4CCN(C5COC5)CC4)c(C#N)c3)ncc2F)C[C@@H]2CCCN21 [Compound 116] | 100 to 500 nM |
| Cn1nnn(-c2cc(Nc3ncc(F)c(N[C@@H]4C[C@@H]5CCCN5C(C)(C)C4)n3)c(F)cc2OC2CC(OCc3ccccc3)C2)c1=O (stereo partly drawn) [Compound 225, 1-(2-(3-(benzyloxy)cyclobutoxy)-5-((4-(((7R,8aS)-5,5-dimethyloctahydroindolizin-7-yl)amino)-5-fluoropyrimidin-2-yl)amino)-4-fluorophenyl)-4-methyl-1,4-dihydro-5H-tetrazol-5-one] | 100 to 500 nM |
| Cc1ccc(Nc2ncc(F)c(N[C@H]3C[C@@H]4CC(F)(F)CN4C(C)(C)C3)n2)cc1C#N [Compound 44, 5-(4-((7S,8aR)-2,2-difluoro-octahydro-5,5-dimethylindolizin-7-ylamino)-5-fluoropyrimidin-2-ylamino)-2-methylbenzonitrile] | 1000 to 10000 nM |
| Cc1ccc(Nc2ncc(F)c(N[C@@H]3C[C@@H]4CCCN4C(C)(C)C3)n2)cc1-n1nnnc1S(C)(=O)=O [Compound 286, 5-fluoro-N4-((7R,8aS)-octahydro-5,5-dimethylindolizin-7-yl)-N2-(4-methyl-3-(5-(methylsulfonyl)-1H-tetrazol-1-yl)phenyl)pyrimidine-2,4-diamine] | > 10000 nM |
| CC1(C)C[C@H](Nc2nc(Nc3cc(-n4cnnn4)c(C4CC4)cc3F)ncc2Cl)C[C@@H]2CCCN21 [Compound 146, 5-chloro-N2-(4-cyclopropyl-2-fluoro-5-(1H-tetrazol-1-yl)phenyl)-N4-((7R,8aS)-5,5-dimethyloctahydroindolizin-7-yl)pyrimidine-2,4-diamine] | < 100 nM |
| CC1(C)C[C@H](Nc2nc(Nc3ccc(OC4COC4)c(C#N)c3)ncc2F)C[C@@H]2CCCN21 [Compound 179, 5-(4-((7R,8aS)-5,5-dimethyloctahydroindolizin-7-ylamino)-5-fluoropyrimidin-2-ylamino)-2-(oxetan-3-yloxy)benzonitrile] | 100 to 500 nM |
| CO[C@@H](C)COc1cc(F)c(Nc2ncc(F)c(N(C[C@H](C)OC)[C@@H]3C[C@@H]4CCCN4C(C)(C)C3)n2)cc1-n1nnn(C)c1=O [Compound 234, 1-(5-((4-(((7R,8aS)-5,5-dimethyloctahydroindolizin-7-yl)((S)-2-methoxypropyl)amino)-5-fluoropyrimidin-2-yl)amino)-4-fluoro-2-((S)-2-methoxypropoxy)phenyl)-4-methyl-1,4-dihydro-5H-tetrazol-5-one] | > 10000 nM |
| Fc1cc(C2CC2)c(-n2cnnn2)cc1Nc1ncc(F)c(NC2CCN3CCCC3C2)n1 (racemic) [Compound 24, (±)-N^2-(4-cyclopropyl-2-fluoro-5-(1H-tetrazol-1-yl)phenyl)-5-fluoro-n^4-(octahydroindolizin-7-yl)pyrimidine-2,4-diamine] | 100 to 500 nM |
| CNC(=O)c1ccc(Nc2ncc(F)c(N[C@@H]3C[C@@H]4CCCN4C(C)(C)C3)n2)cc1Cl [Compound 327, 4-(4-((7R,8aS)-octahydro-5,5-dimethylindolizin-7-ylamino)-5-fluoropyrimidin-2-ylamino)-2-chloro-N-methylbenzamide] | 500 to 1000 nM |
| Cc1nnnn1-c1cc(Nc2ncc(F)c(NC3CC(C)(C)N4CCCC4C3C)n2)ccc1F (stereo not drawn) [Compound 70, 5-Fluoro-N2-(4-fluoro-3-(5-methyl-1H-tetrazol-1-yl)phenyl)-N4-(octahydro-5,5,8-trimethylindolizin-7-yl)pyrimidine-2,4-diamine] | 1000 to 10000 nM |
